# Legend:
# Type in all cases: in vivo
# [1] = system: Veronica persica; experiment: Post-emergence herbicidal action against VERPE; details: 80 g/ha, visual assessment about 3 weeks after treatment
# Outline: (§1)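 A WP or EC formulation diluted in water with 0.2% wetting agent was sprayed at 600 to 800 l/ha onto one-leaf-stage plants grown in sandy loam. About 3 weeks later, action was rated visually in percent, 100% being dead plants.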
# [2] = system: Setaria viridis; experiment: Pre-emergence herbicidal action against SETVI
# Outline: (§2)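 Greenhouse pots of sandy loam held seeds covered with soil, onto which the compound was applied before emergence. An aqueous suspension or emulsion of WP or EC was used at 600 to 800 l/ha with 0.2% wetting agent. Percent damage was judged visually at 3 weeks.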
# [3] = system: Cyperus esculentus; experiment: Pre-emergence herbicidal action against CYPES; details: visual score after 3 weeks vs untreated controls
# Outline: as §2
# [4] = system: Polygonum convolvulus; experiment: Pre-emergence herbicidal action against POLCO
# Outline: as §2
# [5] = system: Alopecurus myosuroides; experiment: Pre-emergence herbicidal action against ALOMY; details: visual score after 3 weeks vs untreated controls
# Outline: as §2
# [6] = system: Cyperus esculentus; experiment: Post-emergence herbicidal action against CYPES; details: 80 g/ha, visual assessment about 3 weeks after treatment
# Outline: as §1
# [7] = system: Stellaria media; experiment: Post-emergence herbicidal action against STEME; details: visual assessment about 3 weeks after treatment
# Outline: as §1
# [8] = system: Lolium rigidum; experiment: Post-emergence herbicidal action against LOLRI; details: 80 g/ha
# Outline: as §1
# [9] = system: Alopecurus myosuroides; experiment: Post-emergence herbicidal action against ALOMY
# Outline: as §1
# [10] = system: Pharbitis purpurea; experiment: Pre-emergence herbicidal action against PHBPU; details: visual score after 3 weeks vs untreated controls
# Outline: as §2
# [11] = system: Echinochloa crus-galli; experiment: Pre-emergence herbicidal action against ECHCG; details: visual score after 3 weeks vs untreated controls
# Outline: as §2
# [12] = system: Veronica persica; experiment: Pre-emergence herbicidal action against VERPE
# Outline: as §2
# [13] = system: Pharbitis purpurea; experiment: Post-emergence herbicidal action against PHBPU; details: visual assessment about 3 weeks after treatment
# Outline: as §1
# [14] = system: Matricaria inodora; experiment: Post-emergence herbicidal action against MATIN; details: visual assessment about 3 weeks after treatment
# Outline: as §1
# [15] = system: Amaranthus retroflexus; experiment: Post-emergence herbicidal action against AMARE; details: visual assessment about 3 weeks after treatment
# Outline: as §1
# [16] = system: Polygonum convolvulus; experiment: Post-emergence herbicidal action against POLCO; details: 80 g/ha, visual assessment about 3 weeks after treatment
# Outline: as §1
# [17] = system: Lolium rigidum; experiment: Pre-emergence herbicidal action against LOLRI
# Outline: as §2
# [18] = system: Amaranthus retroflexus; experiment: Pre-emergence herbicidal action against AMARE; details: visual score after 3 weeks vs untreated controls
# Outline: as §2
# [19] = system: Avena fatua; experiment: Post-emergence herbicidal action against AVEFA; details: 80 g/ha, visual assessment about 3 weeks after treatment
# Outline: as §1
# [20] = system: Abutilon theophrasti; experiment: Pre-emergence herbicidal action against ABUTH; details: visual score after 3 weeks vs untreated controls
# Outline: as §2
# [21] = system: Viola tricolor; experiment: Pre-emergence herbicidal action against VIOTR
# Outline: as §2
# [22] = system: Avena fatua; experiment: Pre-emergence herbicidal action against AVEFA; details: visual score after 3 weeks vs untreated controls
# Outline: as §2
# [23] = system: Echinochloa crus-galli; experiment: Post-emergence herbicidal action against ECHCG; details: visual assessment about 3 weeks after treatment
# Outline: as §1
# [24] = system: Viola tricolor; experiment: Post-emergence herbicidal action against VIOTR
# Outline: as §1
# [25] = system: Hordeum murinum; experiment: Pre-emergence herbicidal action against HORMU; details: visual score after 3 weeks vs untreated controls
# Outline: as §2
# [26] = system: Hordeum murinum; experiment: Post-emergence herbicidal action against HORMU
# Outline: as §1
# [27] = system: Setaria viridis; experiment: Post-emergence herbicidal action against SETVI; details: visual assessment about 3 weeks after treatment
# Outline: as §1
# [28] = system: Stellaria media; experiment: Pre-emergence herbicidal action against STEME
# Outline: as §2
# [29] = system: Matricaria inodora; experiment: Pre-emergence herbicidal action against MATIN; details: visual score after 3 weeks vs untreated controls
# Outline: as §2
# [30] = system: Abutilon theophrasti; experiment: Post-emergence herbicidal action against ABUTH
# Outline: as §1
compound,measurement,setting,value
Cn1nnnc1NC(=O)c1ccc(C(F)(F)F)c(C(=O)n2cccn2)c1Cl [Example 1-153],Post-emergence action against VERPE in %,[1],80%
same,Pre-emergence action against SETVI,[2]; 20 g/ha,100%
same,Pre-emergence action against SETVI,[2]; 80 g/ha,100%
same,Pre-emergence action against SETVI,[2]; 320 g/ha,100%
same,Pre-emergence action against CYPES,[3]; 20 g/ha,100%
same,Pre-emergence action against CYPES,[3]; 80 g/ha,100%
same,Pre-emergence action against CYPES,[3]; 320 g/ha,100%
same,Pre-emergence action against POLCO,[4]; 80 g/ha,90%
same,Pre-emergence action against POLCO,[4]; 320 g/ha,100%
same,Pre-emergence action against ALOMY,[5]; 80 g/ha,80%
same,Pre-emergence action against ALOMY,[5]; 320 g/ha,100%
same,Post-emergence action against CYPES in %,[6],90%
same,Post-emergence action against STEME in %,[7]; 5 g/ha,100%
same,Post-emergence action against STEME in %,[7]; 20 g/ha,100%
same,Post-emergence action against STEME in %,[7]; 80 g/ha,100%
same,Post-emergence action against LOLRI in %,[8],90%
same,Post-emergence action against ALOMY,[9]; 5 g/ha,80%
same,Post-emergence action against ALOMY,[9]; 20 g/ha,90%
same,Post-emergence action against ALOMY,[9]; 80 g/ha,90%
same,Pre-emergence action against PHBPU,[10]; 80 g/ha,90%
same,Pre-emergence action against PHBPU,[10]; 320 g/ha,90%
same,Pre-emergence action against ECHCG,[11]; 20 g/ha,100%
same,Pre-emergence action against ECHCG,[11]; 80 g/ha,100%
same,Pre-emergence action against ECHCG,[11]; 320 g/ha,100%
same,Pre-emergence action against VERPE,[12]; 80 g/ha,90%
same,Pre-emergence action against VERPE,[12]; 320 g/ha,100%
same,Post-emergence action against PHBPU in %,[13]; 5 g/ha,80%
same,Post-emergence action against PHBPU in %,[13]; 20 g/ha,90%
same,Post-emergence action against PHBPU in %,[13]; 80 g/ha,90%
same,Post-emergence action against MATIN in %,[14]; 5 g/ha,90%
same,Post-emergence action against MATIN in %,[14]; 20 g/ha,90%
same,Post-emergence action against MATIN in %,[14]; 80 g/ha,100%
same,Post-emergence action against AMARE in %,[15]; 5 g/ha,100%
same,Post-emergence action against AMARE in %,[15]; 20 g/ha,100%
same,Post-emergence action against AMARE in %,[15]; 80 g/ha,100%
same,Post-emergence action against POLCO in %,[16],90%
same,Pre-emergence action against LOLRI,[17]; 80 g/ha,80%
same,Pre-emergence action against LOLRI,[17]; 320 g/ha,90%
same,Pre-emergence action against AMARE,[18]; 20 g/ha,100%
same,Pre-emergence action against AMARE,[18]; 80 g/ha,100%
same,Pre-emergence action against AMARE,[18]; 320 g/ha,100%
same,Post-emergence action against AVEFA in %,[19],100%
same,Pre-emergence action against ABUTH,[20]; 20 g/ha,100%
same,Pre-emergence action against ABUTH,[20]; 80 g/ha,100%
same,Pre-emergence action against ABUTH,[20]; Dosage column 320 g/ha (heading prints 3200 g/ha),100%
same,Pre-emergence action against VIOTR,[21]; 80 g/ha,100%
same,Pre-emergence action against VIOTR,[21]; 320 g/ha,100%
same,Pre-emergence action against AVEFA,[22]; 80 g/ha,100%
same,Pre-emergence action against AVEFA,[22]; 320 g/ha,100%
same,Post-emergence action against ECHCG in %,[23]; 5 g/ha,90%
same,Post-emergence action against ECHCG in %,[23]; 20 g/ha,100%
same,Post-emergence action against ECHCG in %,[23]; 80 g/ha,100%
same,Post-emergence action against VIOTR in %,[24]; 5 g/ha,80%
same,Post-emergence action against VIOTR in %,[24]; 20 g/ha,90%
same,Post-emergence action against VIOTR in %,[24]; 80 g/ha,90%
same,Pre-emergence action against HORMU,[25]; 80 g/ha,80%
same,Pre-emergence action against HORMU,[25]; 320 g/ha,100%
same,Post-emergence action against HORMU in %,[26]; 20 g/ha,80%
same,Post-emergence action against HORMU in %,[26]; 80 g/ha,90%
same,Post-emergence action against SETVI in %,[27]; 20 g/ha,100%
same,Post-emergence action against SETVI in %,[27]; 80 g/ha,100%
same,Pre-emergence action against STEME,[28]; 20 g/ha,90%
same,Pre-emergence action against STEME,[28]; 80 g/ha,90%
same,Pre-emergence action against STEME,[28]; 320 g/ha,100%
same,Pre-emergence action against MATIN,[29]; 20 g/ha,90%
same,Pre-emergence action against MATIN,[29]; 80 g/ha,100%
same,Pre-emergence action against MATIN,[29]; 320 g/ha,100%
same,Post-emergence action against ABUTH,[30]; 5 g/ha,90%
same,Post-emergence action against ABUTH,[30]; 20 g/ha,90%
same,Post-emergence action against ABUTH,[30]; 80 g/ha,90%

# Source: patent US12599136B2, “Substituted isophthalic acid diamides and their use as herbicides” (Bayer Aktiengesellschaft, priority 2020, dated 2026)
